Where two headings read alike, the source gives them in different places.
Experiments:
BUB1 = assay: KINOMEscan; settings: 50000 nM
Method: KINOMEscan™ selectivity screen
(§2) The assay was perfor med at DiscoveRx Corporation according the methods published previously5. Briefly, Kinase-tagged T7 phage strains were grown in parallel in an E. coli host derived from the BL21 strain. E. coli were grown to log-phase and infected with T7 phage from a frozen stock and incubated with shaking at 32°C until lysis (90-150 minutes). The kinases were produced in HEK-293 cells and subsequently tagged with DNA for qPCR detection. Streptavidin-coated magnetic beads were treated with biotinylated small molecule ligands to generate affinity resins for kinase
(§3) inhibitor or DMSO control was performed in polypropylene 384-well plates for 1 hr at room temperature. After wash with PBS buffer containing 0.05% Tween 20, the beads were incubated in elution buffer (PBS containing 0.05 % Tween 20 and 0.5 μM non-biotinylated affinity ligand) for 30 minutes at room temperature. The kinase concentration in the eluates was measured by qPCR.

RIPK1 = assay: KINOMEscan; settings: 50000 nM
Method: KINOMEscan™ selectivity screen
as §2, §3

VEGFR2 = assay: KINOMEscan; settings: 50000 nM
Method: KINOMEscan™ selectivity screen
as §2, §3

Akt S473 phosphorylation = assay: Western blot analysis of S473 phosphorylation; type: cell-based; settings: Mus musculus, N2a, 0.5 h; Neuro 2A cells, IGF stimulation 30 min; read-out: IC50 of IGF-induced S473 phosphorylation
Method: Neuro 2A cells were seeded in 12-well plates in DMEM containing 5% FBS for 24 hr.
After overnight serum starvation (in 0% FBS DMEM), cells were incubated for 30 min at 37 °C with G7 or LY294002 or Torin 1 (Sigma Aldrich) at various concentrations, or DMSO control. IGF-1 was added to each well at a final concentration of 100 ng/mL. After 30-min incubation cells were washed with cold PBS and lysed with 50 µL lysis buffer containing 1% Triton X-100 and protease/phosphatase inhibitors (Cell Signaling Technology) or RIPA buffer (Santa Cruz Biotech). Samples were electrophoresed in 4–12% Bis-Tris gels (Life Technologies) at 150 V using MOPS SDS running buffer. Proteins were transferred electrophoretically to a PVDF or nitrocellulose membrane. For detection of cleaved […]
caspase 3 a Trans-Blot Turbo Transfer System (Bio-Rad, 25 V for 25 min) with PVDF membrane were used. […]
anti- GAPDH (14C10) antibody (#2118) (all antibodies were from Cell Signaling Technology unless indicated, 1:1000 dilution was used) at 4°C overnight, washed three times with TBS-T, then incubated with peroxidase-conjugated secondary antibody (Sigma-Aldrich) for 1 hr at room temperature. […] Band intensity was quantitated using Kodak 1D imaging analysis software. […]

EGFR(G719C) = assay: KINOMEscan; settings: 50000 nM
Method: KINOMEscan™ selectivity screen
(§4) Briefly, Kinase-tagged T7 phage strains were grown in parallel in an E. coli host derived from the BL21 strain. E. coli were grown to log-phase and infected with T7 phage from a frozen stock and incubated with shaking at 32°C until lysis (90-150 minutes). The kinases were produced in HEK-293 cells and subsequently tagged with DNA for qPCR detection. Streptavidin-coated magnetic beads were treated with biotinylated small molecule ligands to generate affinity resins for kinase
as §3

MAP3K1 = assay: KINOMEscan; settings: 50000 nM
Method: KINOMEscan™ selectivity screen
as §4, §3

full-length Akt = molecular target: T1, full-length Akt (Homo sapiens, UniProt P31749); assay: Microscale thermophoresis; type: binding
T1 construct: purchased Millipore
T1 sequence (P31749 whole entry): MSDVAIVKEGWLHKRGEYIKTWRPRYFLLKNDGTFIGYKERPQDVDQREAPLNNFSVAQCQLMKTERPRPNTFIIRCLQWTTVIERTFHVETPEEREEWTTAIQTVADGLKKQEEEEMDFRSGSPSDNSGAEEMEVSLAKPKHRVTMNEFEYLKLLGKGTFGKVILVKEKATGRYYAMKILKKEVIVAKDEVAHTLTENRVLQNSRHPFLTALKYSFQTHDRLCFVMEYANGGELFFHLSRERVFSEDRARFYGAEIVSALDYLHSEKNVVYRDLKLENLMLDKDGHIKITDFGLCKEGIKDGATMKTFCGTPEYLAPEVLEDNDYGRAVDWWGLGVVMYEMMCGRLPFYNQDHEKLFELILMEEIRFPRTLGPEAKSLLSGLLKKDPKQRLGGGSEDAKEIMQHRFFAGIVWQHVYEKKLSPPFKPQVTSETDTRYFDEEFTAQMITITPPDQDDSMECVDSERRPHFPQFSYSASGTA
Method: (§1) Using 0.1 M Tris-HCl buffer (pH 7.2) containing 0.05% Tween-20, a 1:1 serial dilution was prepared for G7 to yield 16 working solutions, with the highest concentration being 200 µM. Each of these G7 solutions was mixed with 1 µM of purified Akt sample prepared in the same 0.05% Tween-20 Tris-HCl buffer. […] After 15-min incubation the samples were centrifuged at 14,000 g at 4 °C before loading into premium coated capillaries (NanoTemper Tech.) for MST measurements. The MST experiments was conducted on a Monolith NT.LabelFree instrument (NanoTemper Tech.), at 20% LED power and 40% MST power. Data analyses were performed using the NanoTemper analysis software.

Akt PH domain = molecular target: T2, Akt PH domain (Homo sapiens, UniProt P31749); assay: Microscale thermophoresis; type: binding; settings: recombinant Akt PH domain
T2 construct: The Akt samples tested include recombinant Akt PH domain; purchased Millipore
T2 sequence (P31749 5-108 limits assumed): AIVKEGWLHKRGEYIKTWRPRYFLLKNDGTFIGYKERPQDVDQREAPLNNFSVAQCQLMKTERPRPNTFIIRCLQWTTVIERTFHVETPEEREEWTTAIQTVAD
Method: as §1

MYLK4 = assay: KINOMEscan; settings: 50000 nM
Method: KINOMEscan™ selectivity screen
as §2, §3

IRAK1 = assay: KINOMEscan; settings: 50000 nM
Method: KINOMEscan™ selectivity screen
as §2, §3

ALK = assay: KINOMEscan; settings: 50000 nM
Method: KINOMEscan™ selectivity screen
as §2, §3

[1] = test system: RPS6KA5(Kin.Dom.2-C-terminal); assay: KINOMEscan; settings: 50000 nM
Method: KINOMEscan™ selectivity screen
Briefly, Kinase-tagged T7 phage strains were grown in parallel in an E. coli host derived from the BL21 strain. E. coli were grown to log-phase and infected with T7 phage from a frozen stock and incubated with shaking at 32°C until lysis (90-150 minutes). The kinases were produced in HEK-293 cells and subsequently tagged with DNA for qPCR detection.
After wash with PBS buffer containing 0.05% Tween 20, the beads were incubated in elution buffer (PBS containing 0.05 % Tween 20 and 0.5 μM non-biotinylated affinity ligand) for 30 minutes at room temperature. The kinase concentration in the eluates was measured by qPCR.

IKK-epsilon = assay: KINOMEscan; settings: 50000 nM
Method: KINOMEscan™ selectivity screen
as §4, §3

FLT3(ITD,F691L) = assay: KINOMEscan; settings: 50000 nM
Method: KINOMEscan™ selectivity screen
as §2, §3

IRAK4 = assay: KINOMEscan; settings: 50000 nM
Method: KINOMEscan™ selectivity screen
as §4, §3

PIK3CA(C420R) = assay: KINOMEscan; settings: 50000 nM
Method: KINOMEscan™ selectivity screen
as §4, §3

PI3K = test system: T3, PI3K; assay: ADP-Glo kinase assay; type: biochemical; settings: 50 µM
T3 construct: purchased SignalChem P27-10H-05

GRK7 = assay: KINOMEscan; settings: 50000 nM
Method: KINOMEscan™ selectivity screen
(§5) The assay was perfor med at DiscoveRx Corporation according the methods published previously5. […] The kinases were produced in HEK-293 cells and subsequently tagged with DNA for qPCR detection. Streptavidin-coated magnetic beads were treated with biotinylated small molecule ligands to generate affinity resins for kinase
as §3

ASK1 = assay: KINOMEscan; settings: 50000 nM
Method: KINOMEscan™ selectivity screen
as §2, §3

PIK3CB = assay: KINOMEscan; settings: 50000 nM
Method: KINOMEscan™ selectivity screen
as §4, §3

FGR = assay: KINOMEscan; settings: 50000 nM
Method: KINOMEscan™ selectivity screen
as §2, §3

MEK3 = assay: KINOMEscan; settings: 50000 nM
Method: KINOMEscan™ selectivity screen
as §2, §3

[2] = test system: ABL1(H396P)-phosphorylated; assay: KINOMEscan; settings: 50000 nM
Method: KINOMEscan™ selectivity screen
as §2, §3

AXL = assay: KINOMEscan; settings: 50000 nM
Method: KINOMEscan™ selectivity screen
as §2, §3

MEK5 = assay: KINOMEscan; settings: 50000 nM
Method: KINOMEscan™ selectivity screen
as §2, §3

BLK = assay: KINOMEscan; settings: 50000 nM
Method: KINOMEscan™ selectivity screen
as §4, §3

[3] = test system: JAK3(JH1domain-catalytic); assay: KINOMEscan; settings: 50000 nM
Method: KINOMEscan™ selectivity screen
as §5, §3

[4] = test system: RSK4(Kin.Dom.2-C-terminal); assay: KINOMEscan; settings: 50000 nM
Method: KINOMEscan™ selectivity screen
as §2, §3

MAP4K5 = assay: KINOMEscan; settings: 50000 nM
Method: KINOMEscan™ selectivity screen
as §2, §3

ERBB2 = assay: KINOMEscan; settings: 50000 nM
Method: KINOMEscan™ selectivity screen
as §2, §3

With `Oc1cc(-c2ccccc2)c2ccccc2n1` [G7, 4-phenylquinolin-2(1H)-one] the “Percent Control” value (BUB1) was 85%, the “Percent Control” value (RIPK1) was 100% and the “Percent Control” value (VEGFR2) was 67%. The IC50 (Akt S473 phosphorylation) was 18 µM, the “Percent Control” value (EGFR(G719C)) was 79% and the “Percent Control” value (MAP3K1) was 71%. It also gave a Kd (full-length Akt; active Akt, read-out: Kd) of 6.3 ± 2.9 µM, a Kd (full-length Akt; full-length Akt regardless of the activation status, read-out: Kd values) of 4 to 6 µM and a Kd (full-length Akt; inactive Akt, read-out: Kd) of 3.7 ± 1 µM. For the same compound, the Kd (Akt PH domain) was 8 µM, the “Percent Control” value (MYLK4) was 43% and the “Percent Control” value (IRAK1) was 53%. The “Percent Control” value (ALK) was 95%, the “Percent Control” value [1] was 93% and the “Percent Control” value (IKK-epsilon) was 100%. For the same compound, the “Percent Control” value (FLT3(ITD,F691L)) was 40%, the “Percent Control” value (IRAK4) was 68% and the “Percent Control” value (PIK3CA(C420R)) was 100%. The “effect on PI3K activity” value (PI3K) was “no effects”, the “Percent Control” value (GRK7) was 52% and the “Percent Control” value (ASK1) was 94%. For the same compound, the “Percent Control” value (PIK3CB) was 69%, the “Percent Control” value (FGR) was 88% and the “Percent Control” value (MEK3) was 81%. The “Percent Control” value [2] was 66%, the “Percent Control” value (AXL) was 42% and the “Percent Control” value (MEK5) was 70%. The “Percent Control” value (BLK) was 79%, the “Percent Control” value [3] was 56% and the “Percent Control” value [4] was 38%. The “Percent Control” value (MAP4K5) was 100% and the “Percent Control” value (ERBB2) was 98%.

Source: article PMC5601486, “Identification of 4-phenylquinolin-2(1H)-one as a specific allosteric inhibitor of Akt” (Scientific Reports, 2017)
